Data from patent US4772551A (priority 1985, dated 1988).

Legend:
[1] = biological target: T-2 reactive monoclonal antibody; format: binding, murine
[2] = tested on: polyclonal antibodies produced to aflatoxin B1 and ochratoxin A; settings: cited from earlier work

Row | SMILES | 50% Inhibition (concentration required to inhibit binding of antibody by 50%) [1] | Minimal Inhibition (concentration required for first significant inhibition of binding of antibody) [1] | cross reaction with T-2 monoclonal antibody [1] | reactivity relative to T-2 [1] [%] | sensitivity [2]
1 | CC(=O)OC[C@]12C[C@H](O)C(C)=C[C@H]1O[C@@H]1[C@H](O)[C@@H](OC(C)=O)[C@@]2(C)[C@]12CO2 [Neosolaniol] | 1.6 µg/mL | 1.0 µg/mL | – | – | –
2 | CC1=C[C@H]2O[C@@H]3[C@H](O)C[C@](C)([C@@]2(CO)[C@H](O)C1=O)[C@]31CO1 [Deoxynivalanol] | > 1000. ug/ml | > 1000. ug/ml | – | – | –
3 | CC(=O)OC[C@]12C[C@H](OC(=O)CC(C)(C)O)C(C)=C[C@H]1O[C@@H]1[C@H](O)[C@@H](OC(C)=O)[C@@]2(C)[C@]12CO2 [3'OH T-2] | 0.018 µg/mL | 0.005 µg/mL | – | – | –
4 | CC(=O)OC[C@]12C[C@H](OC(=O)CC(C)C)C(C)=C[C@H]1O[C@@H]1[C@H](O)[C@@H](O)[C@@]2(C)[C@]12CO2 [HT-2] | 1.0 µg/mL | 0.5 µg/mL | relatively weak cross-reaction | 2 | –
5 | CC(=O)OC[C@]12C[C@H](OC(=O)CC(C)(C)O)C(C)=C[C@H]1O[C@@H]1[C@H](O)[C@@H](O)[C@@]2(C)[C@]12CO2 [3'OH HT-2] | 0.100 µg/mL | 0.05 µg/mL | – | – | –
6 | CC1=C[C@H]2O[C@@H]3[C@H](O)[C@@H](O)[C@](C)([C@@]2(CO)C[C@@H]1OC(=O)CC(C)C)[C@]31CO1 [T-2 triol] | 14.9 µg/mL | 5.0 µg/mL | – | – | –
7 | CC(=O)OC[C@]12C[C@H](OC(=O)CC(C)C)C(C)=C[C@H]1O[C@@H]1[C@H](OC(C)=O)[C@@H](OC(C)=O)[C@@]2(C)[C@]12CO2 [Acetyl T-2] | 0.094 µg/mL | 0.01 µg/mL | strong cross reaction | – | –
8 | C[C@@H]1Cc2c(Cl)cc(C(=O)N[C@@H](Cc3ccccc3)C(=O)O)c(O)c2C(=O)O1 [ochratoxin A] | – | – | – | – | 5-10 ppb
9 | CC(=O)OC[C@]12C[C@H](OC(=O)CC(C)C)C(C)=C[C@H]1O[C@@H]1[C@H](OC(=O)CCC(=O)O)[C@@H](OC(C)=O)[C@@]2(C)[C@]12CO2 [T-2HS, T-2-hemisuccinate] | 0.072 µg/mL | 0.01 µg/mL | – | – | –
